Reference: US11242351B2, “Tricyclic inhibitors of the BCL6 BTB domain protein-protein interaction and uses thereof” (priority 2017, dated 2022)
Read-outs that look alike come from different tables or passages of the source.

Tests used:
Karpas422 cells = assay: Tumor cell growth inhibition assay; type: cell-based; conditions: Homo sapiens, KARPAS-422, 144 h, read-out: GI Karpas EC50
How it was run: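 Karpas422 cells were dosed over a 10-point concentration range (top 5 μM) and grown 6 days at 37 °C, 5% CO2, in Alpha-MEM with 10% FBS. Viability was read as ATPlite luminescence.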

[1] = molecular target: BCL6 BTB domain (biotin-thrombin-BCL6 amino acids 1-129) (Homo sapiens (Human), UniProt P41182); assay: Surface Plasmon Resonance (SPR) assay; type: binding; conditions: Biacore T200, single cycle kinetic analysis
Experimental: Surface Plasmon Resonance (SPR) Assay
SPR studies were performed using a Biacore™ T200 instrument (GE Health Sciences Inc.). […] The Biacore flow rate was set at 100 μl/min. […] Curve fitting and KD calculations were performed with the Biacore T200 Evaluation software (GE Health Sciences Inc).

[2] = test system: BCL6 reporter construct in SuDHL4-3×BCL6-TK-Luc cells; assay: Cell-based luciferase assay (BCL6 reporter); conditions: 48 h, read-out: Luc IC50
How it was run: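 SuDHL4 cells stably carrying a 3×BCL6-site TK-promoter firefly luciferase reporter, 15,000 cells/well, dosed over 10 concentrations (top 10 μM) and cultured two days at 37° C, 5% CO2. Luciferase luminescence read after room-temperature equilibration with neolite reagent.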

[3] = Karpas422 cells, six days, ATPlite
[4] = SuDHL4-3×BCL6-TK-Luc cells, two days

SMILES | EC50 (Karpas422 cells; [3]) [nM] | Kd [1] [nM] | IC50 [2, 4] [nM] | EC50 (Karpas422 cells) [nM] | IC50 [2] [nM]
C[C@H]1COCCN1c1cc(NC(=O)Cn2cc(-c3cc(C(N)=O)c(O)c4c3OCO4)c3c(=O)n4c(nc32)CCC4)c(Cl)cn1 [I-85, (S)-7-(1-(2-((5-chloro-2-(3-methylmorpholino)pyridin-4-yl)amino)-2-oxoethyl)-4-oxo-4,6,7,8-tetrahydro-1H-dipyrrolo[1,2-a:2′,3′-d]pyrimidin-3-yl)-4-hydroxybenzo[d][1,3] dioxole-5-carboxamide] | 29.6 | 1.61 | 15.4 | – | –
CCN1CCN(c2cc(NC(=O)Cn3cc(-c4cc(C(N)=O)c(O)c5c4OCO5)c4c(=O)n5c(nc43)CCC5)c(Cl)c(F)n2)[C@@H](C)C1 [I-86, (S)-7-(1-(2-((3-chloro-6-(4-ethyl-2-methyl-piperazin-1-yl)-2-fluoropyridin-4-yl)amino)-2-oxoethyl)-4-oxo-4,6,7,8-tetrahydro-1H-dipyrrolo[1,2-a:2′,3′-d]pyrimidin-3-yl)-4-hydroxybenzo[d][1,3] dioxole-5-carboxamide] | – | 0.81 | – | 6.88 | 7.85
CC1Cc2nc3c(c(-c4cc(C(N)=O)c(O)c5c4OCO5)cn3CC(=O)Nc3cc(N4CCN(C)C[C@@H]4C)nc(F)c3Cl)c(=O)n2C1 (stereo partly drawn) [I-87, 7-(1-(2-((3-chloro-6-((S)-2,4-dimethyl-piperazin-1-yl)-2-fluoropyridin-4-yl)amino)-2-oxoethyl)-7-methyl-4-oxo-4,6,7,8-tetrahydro-1H-dipyrrolo[1,2-a:2′,3′-d]pyrimidin-3-yl)-4-hydroxybenzo[d][1,3] dioxole-5-carboxamide] | 9.04 | 0.77 | 10.6 | – | –
CC1Cc2nc3c(c(-c4cc(C(N)=O)c(O)c5c4OCO5)cn3CC(=O)Nc3cc(N4CCOC[C@@H]4C)ncc3Cl)c(=O)n2C1 (stereo partly drawn) [I-88, 7-(1-(2-((5-chloro-2-((S)-3-methylmorpho-lino)pyridin-4-yl)amino)-2-oxoethyl)-7-methyl-4-oxo-4,6,7,8-tetrahydro-1H-dipyrrolo[1,2-a:2′,3′-d]pyrimidin-3-yl)-4-hydroxybenzo[d][1,3] dioxole-5-carboxamide] | 17.6 | 2.14 | 39.4 | – | –
CCN1CCN(c2cc(NC(=O)Cn3cc(-c4cc(C(N)=O)c(O)c5c4OCO5)c4c(=O)n5c(nc43)CC(C)C5)c(Cl)c(F)n2)[C@@H](C)C1 (stereo partly drawn) [I-89, 7-(1-(2-((3-chloro-6-((S)-4-ethyl-2-methyl-piperazin-1-yl)-2-fluoropyridin-4-yl)amino)-2-oxoethyl)-7-methyl-4-oxo-4,6,7,8-tetrahydro-1H-dipyrrolo[1,2-a:2′,3′-d]pyrimidin-3-yl)-4-hydroxybenzo[d][1,3] dioxole-5-carboxamide] | 11.1 | 1.36 | 12.9 | – | –
C[C@H]1CNCCN1c1cc(NC(=O)Cn2cc(-c3cc(C(N)=O)c(O)c4c3OCO4)c3c(=O)n4c(nc32)CCC4)c(Cl)c(F)n1 [I-90, (S)-7-(1-(2-((3-chloro-2-fluoro-6-(2-methyl-piperazin-1-yl)pyridin-4-yl)amino)-2-oxo-ethyl)-4-oxo-4,6,7,8-tetrahydro-1H-dipyrrolo [1,2-a:2′,3′-d]pyrimidin-3-yl)-4-hydroxybenzo [d][1,3]dioxole-5-carboxamide] | 22 | 0.7 | 23.5 | – | –
COc1c(-c2cn(CC(=O)Nc3cc(N4CCN(C)C[C@@H]4C)nc(F)c3Cl)c3nc4n(c(=O)c23)CCC4)cc(C(N)=O)c(O)c1F [I-91, (S)-5-(1-(2-((3-chloro-6-(2,4-dimethylpipera-zin-1-yl)-2-fluoro-pyridin-4-yl)amino)-2-oxoethyl)-4-oxo-4,6,7,8-tetrahydro-1H-dipyrrolo [1,2-a:2′,3′-d]pyrimidin-3-yl)-3-fluoro-2-hydroxy-4-methoxy-benzamide] | – | 94.7 | – | 1790 | 1030
C[C@H]1CN(C)CCN1c1cc(NC(=O)Cn2cc(-c3cc(C(N)=O)c(O)c4c3OCO4)c3c(=O)n4c(nc32)CC(C)(C)C4)c(Cl)c(F)n1 [I-92, (S)-7-(1-(2-((3-chloro-6-(2,4-dimethylpipera-zin-1-yl)-2-fluoro-pyridin-4-yl)amino)-2-oxoethyl)-7,7-dimethyl-4-oxo-4,6,7,8-tetra-hydro-1H-dipyrrolo [1,2-a:2′,3′-d]pyrimi-din-3-yl)-4-hydroxy-benzo[d][1,3]dioxole-5-carboxamide] | 9.22 | 0.87 | 12.4 | – | –
C[C@H]1CNCCN1c1cc(NC(=O)Cn2cc(-c3cc(F)c(O)c(C(N)=O)c3)c3c(=O)n4c(nc32)CCC4)c(Cl)c(F)n1 [I-93, (S)-5-(1-(2-((3-chloro-2-fluoro-6-(2-methyl-piperazin-1-yl)pyridin-4-yl)amino)-2-oxoethyl)-4-oxo-4,6,7,8-tetrahydro-1H-dipyrrolo[1,2-a:2′,3′-d]pyrimidin-3-yl)-3-fluoro-2-hydroxy-benzamide] | 83.9 | 1.79 | 140 | – | –
C[C@H]1CN(C)CCN1c1cc(NC(=O)Cn2cc(-c3cc(C(N)=O)c(O)c4c3OCO4)c3c(=O)n4c(nc32)COCC4)c(Cl)c(F)n1 [I-94, (S)-7-(1-(2-((3-chloro-6-(2,4-dimethylpipera-zin-1-yl)-2-fluoro-pyridin-4-yl)amino)-2-oxoethyl)-4-oxo-4,6,7,9-tetrahydro-1H-pyrrolo[2′,3′:4,5]pyri-mido[2,1-c][1,4]oxazin-3-yl)-4-hydroxybenzo [d][1,3]dioxole-5-carboxamide] | 17.8 | 1.33 | 28.3 | – | –
COc1c(-c2cn(CC(=O)Nc3cc(N4CCN(C)C[C@@H]4C)nc(F)c3Cl)c3nc4n(c(=O)c23)CCC4)cc(C(N)=O)c(O)c1Cl [I-95, (S)-3-chloro-5-(1-(2-((3-chloro-6-(2,4-dimethylpiperazin-1-yl)-2-fluoropyridin-4-yl)amino)-2-oxo-ethyl)-4-oxo-4,6,7,8-tetrahydro-1H-dipyrrolo[1,2-a:2′,3′-d]pyrimidin-3-yl)-2-hydroxy-4-methoxy-benzamide] | – | 450 | – | 879 | 993
C[C@H]1CNCCN1c1cc(NC(=O)Cn2cc(-c3cc(C(N)=O)c(O)c4c3OCO4)c3c(=O)n4c(nc32)CC(C)(C)C4)c(Cl)c(F)n1 [I-96, (S)-7-(1-(2-((3-chloro-2-fluoro-6-(2-methyl-piperazin-1-yl)pyridin-4-yl)amino)-2-oxo-ethyl)-7,7-dimethyl-4-oxo-4,6,7,8-tetrahydro-1H-dipyrrolo[1,2-a:2′,3′-d]pyrimidin-3-yl)-4-hydroxybenzo[d][1,3] dioxole-5-carboxamide] | – | 0.96 | – | 14.2 | 17.5
C[C@@H]1CN(C)C[C@H](C)N1c1cc(NC(=O)Cn2cc(-c3cc(C(N)=O)c(O)c(F)c3F)c3c(=O)n4c(nc32)CCC4)c(Cl)c(F)n1 [I-97, 5-(1-(2-((3-chloro-2-fluoro-6-((2R,6S)-2,4,6-trimethylpiperazin-1-yl)pyridin-4-yl)amino)-2-oxoethyl)-4-oxo-4,6,7,8-tetrahydro-1H-dipyrrolo[1,2-a:2′,3′-d]pyrimidin-3-yl)-3,4-difluoro-2-hydroxy-benzamide] | – | 11.9 | – | 70.9 | 63.5
C[C@@H]1CN(C)C[C@H](C)N1c1cc(NC(=O)Cn2cc(-c3cc(C(N)=O)c(O)c4c3OCO4)c3c(=O)n4c(nc32)CCC4)c(Cl)c(F)n1 [I-98, 7-(1-(2-((3-chloro-2-fluoro-6-((2R,6S)-2,4,6-trimethylpiperazin-1-yl)pyridin-4-yl)amino)-2-oxoethyl)-4-oxo-4,6,7,8-tetrahydro-1H-dipyrrolo [1,2-a:2′,3′-d]pyrimidin-3-yl)-4-hydroxybenzo [d][1,3]dioxole-5-carboxamide] | – | 0.96 | – | 8.42 | 8.16
